Measurements reported in US9999222B2, “Herbicidal combination comprising azines” (BASF SE, priority 2014, dated 2018).
Several values for one entry are separate records, joined by “and”; a condition that tells them apart may be missing. Equal values may be shown once. Read-outs that look alike come from different tables or passages of the source.

Key:
Assay in all cases: Greenhouse test, pre-emergence treatment
ALOMY = type: in vivo, Alopecurus myosuroides
Text: (§1) The culture containers used were plastic flowerpots containing loamy sand with approximately 3.0% of humus as the substrate. The seeds of the test plants were sown separately for each species.
(§2) For the pre-emergence treatment, the active ingredients, which had been suspended or emulsified in water, were applied directly after sowing by means of finely distributing nozzles. The containers were irrigated gently to promote germination and growth and subsequently covered with transparent plastic hoods until the plants had rooted. This cover caused uniform germination of the test plants, unless this had been impaired by the active ingredients.
(§3) Depending on the species, the plants were kept at 10-25° C. or 20-35° C., respectively.
(§4) The test period extended over 2 to 4 weeks. During this time, the plants were tended, and their response to the individual treatments was evaluated.
(§5) Evaluation was carried out using a scale from 0 to 100. 100 means no emergence of the plants, or complete destruction of at least the aerial moieties, and 0 means no damage, or normal course of growth. A moderate herbicidal activity is given at values of at least 60, a good herbicidal activity is given at values of at least 70, and a very good herbicidal activity is given at values of at least 85.
(§6) The respective stated components a and b, and if appropriate, c were formulated as a 10% by weight strength emulsion concentrate and, with addition of the amount of solvent system, introduced into the spray liquor used for applying the active compound.
(§7) In the examples, the solvent used was water.
(§8) In the examples below, using the method of S. R. Colby (1967) “Calculating synergistic and antagonistic responses of herbicide combinations”, Weeds 15, p. 22ff., the value E, which is expected if the activity of the individual active compounds is only additive, was calculated. E=X+Y−(X·Y/100) where • X=percent activity using active compound a at an application rate A; • Y=percent activity using active compound b at an application rate B; • E=expected activity (in %) by a+b at application rates A+B.
(§9) If the value found experimentally is higher than the value E calculated according to Colby, a synergistic effect is present.

APESV = type: in vivo, Apera spica-venti; conditions: use rate 15.5 g ai/ha
Text: as §1, §2, §3, §4, §5, §6, §7, §8, §9

ECHCG = type: in vivo, Echinocloa crus-galli; conditions: Echinochloa crus-galli, 480 h, read-out: observed % activity 20 DAT
Text: as §1, §2, §3, §4, §5, §6, §7, §8, §9

POLCO = type: in vivo, Polygonum convolvulus; conditions: for inhibition at 62 g/ha: use rate 62 g ai/ha; for observed % activity: 20 DAT
Method in brief: (§10)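 Seeds were sown in loamy sand with about 3.0% humus, and compounds in water were sprayed immediately after sowing, alone or as combinations formulated as 10% emulsion concentrates. Plants grew under hoods until rooted, at 10-25 °C or 20-35 °C by species, for 2 to 4 weeks. Damage was scored 0-100 (100 = no emergence or complete destruction), and Colby expected values were E=X+Y−(X·Y/100).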

SETFA = type: in vivo, Setaria faberi; conditions: for inhibition at 7.75 g/ha / inhibition at 15.5 g/ha: Setaria faberi, 480 h, read-out: observed % activity 20 DAT; for inhibition at 15.5 g/ha: use rate 15.5 g ai/ha
Text: as §1, §2, §3, §4, §5, §6, §7, §8, §9

VIOAR = type: in vivo, Viola arvensis; conditions: Viola arvensis, 480 h, read-out: observed % activity 20 DAT
Text: as §1, §2, §3, §4, §5, §6, §7, §8, §9

GERPU = type: in vivo, Geranium pusillum; conditions: pre-emergence, pre-emergence
Method in brief: as §10

KCHSC = type: in vivo, Kochia scoparia; conditions: for inhibition at 31 g/ha: use rate 31 g ai/ha; for inhibition at 62 g/ha: use rate 62 g ai/ha; for observed % activity: 20 DAT
Method in brief: as §10

LOLMU = type: in vivo, Lolium multiflorum; conditions: for observed % activity: 20 DAT
Text: as §1, §2, §3, §4, §5, §6, §7, §8, §9

PHACA = type: in vivo, Phalaris canariensis
Text: as §1, §2, §3, §4, §5, §6, §7, §8, §9

AVEFA = type: in vivo, Avena fatua; conditions: 250 g ai/ha, 20 DAT
Text: as §1, §2, §3, §4, §5, §6, §7, §8, §9

GALAP = type: in vivo, Galium aparine; conditions: 20 DAT
Method in brief: as §10

SORHA = type: in vivo, Sorghum halepense; conditions: 125 g ai/ha, 20 DAT
Text: as §1, §2, §3, §4, §5, §6, §7, §8, §9

[1] = pre-emergence, use rate 7.75 g ai/ha
[2] = pre-emergence, use rate 15.5 g ai/ha
[3] = pre-emergence, use rate 31 g ai/ha
[4] = pre-emergence, use rate 62 g ai/ha
[5] = Bassia scoparia, pre-emergence, 480 h, KCHSC, pre-emergence, individual, read-out: observed % activity 20 DAT
[6] = Bassia scoparia, pre-emergence, 480 h, pre-emergence, read-out: observed % activity 20 DAT

CC(C)(F)c1nc(N)nc(Nc2c(F)cccc2F)n1 [compound 10, N4-(2,6-difluorophenyl)-6-(1-fluoro-1-methyl-ethyl)-1,3,5-triazine-2,4-diamine]
inhibition at 15.5 g/ha (ALOMY; Alopecurus myosuroides, pre-emergence, 480 h, ALOMY, pre-emergence, individual, use rate 15.5 g ai/ha, read-out: observed % activity 20 DAT): 65%
inhibition at 31 g/ha (ALOMY; Alopecurus myosuroides, pre-emergence, 480 h, ALOMY, pre-emergence, individual, use rate 31 g ai/ha, read-out: observed % activity 20 DAT): 90%
inhibition at 62 g/ha (ALOMY; Alopecurus myosuroides, pre-emergence, 480 h, ALOMY, pre-emergence, individual, use rate 62 g ai/ha, read-out: observed % activity 20 DAT): 90%
inhibition at 7.75 g/ha (ALOMY; Alopecurus myosuroides, pre-emergence, 480 h, pre-emergence, use rate 7.75 g ai/ha, read-out: observed % activity 20 DAT): 65%
inhibition at 31 g/ha (ALOMY; Alopecurus myosuroides, pre-emergence, 480 h, pre-emergence, use rate 31 g ai/ha, read-out: observed % activity 20 DAT): 90%
inhibition at 62 g/ha (ALOMY; Alopecurus myosuroides, pre-emergence, 480 h, pre-emergence, use rate 62 g ai/ha, read-out: observed % activity 20 DAT): 90%
observed % activity 20 DAT (ALOMY; [1]): 75%
observed % activity 20 DAT (ALOMY; [2]): 70% and 95%
observed % activity 20 DAT (ALOMY; [3]): 98%
observed % activity 20 DAT (ALOMY; [4]): 95% and 98%
inhibition at 15.5 g/ha (APESV; Apera spica-venti, 480 h, read-out: observed % activity 20 DAT): 95%
observed % activity 20 DAT (APESV): 98%
inhibition at 7.75 g/ha (ECHCG; use rate 7.75 g ai/ha): 90%
inhibition at 15.5 g/ha (ECHCG; use rate 15.5 g ai/ha): 95%
inhibition at 62 g/ha (POLCO; Fallopia convolvulus, pre-emergence, 480 h, POLCO, pre-emergence, individual, read-out: observed % activity 20 DAT): 95%
inhibition at 7.75 g/ha (POLCO; Fallopia convolvulus, pre-emergence, 480 h, pre-emergence, use rate 7.75 g ai/ha, read-out: observed % activity 20 DAT): 70%
inhibition at 15.5 g/ha (POLCO; Fallopia convolvulus, pre-emergence, 480 h, pre-emergence, use rate 15.5 g ai/ha, read-out: observed % activity 20 DAT): 90%
inhibition at 62 g/ha (POLCO; Fallopia convolvulus, pre-emergence, 480 h, pre-emergence, read-out: observed % activity 20 DAT): 95%
observed % activity 20 DAT (POLCO; [1]): 75%
inhibition at 7.75 g/ha (SETFA; SETFA, individual, use rate 7.75 g ai/ha): 90%
inhibition at 15.5 g/ha (SETFA; SETFA, individual): 98%
inhibition at 7.75 g/ha (SETFA; use rate 7.75 g ai/ha): 75%
inhibition at 15.5 g/ha (SETFA): 95%
observed % activity 20 DAT (SETFA; use rate 7.75 g ai/ha): 65%
inhibition at 7.75 g/ha (VIOAR; use rate 7.75 g ai/ha): 90%
inhibition at 15.5 g/ha (VIOAR; use rate 15.5 g ai/ha): 85%
inhibition at 15.5 g/ha (GERPU; Geranium pusillum, 480 h, use rate 15.5 g ai/ha, read-out: observed % activity 20 DAT): 75%
observed % activity 20 DAT (GERPU; use rate 7.75 g ai/ha): 50%
inhibition at 31 g/ha (KCHSC; [5]): 75%
inhibition at 62 g/ha (KCHSC; [5]): 90%
inhibition at 16.5 g/ha (KCHSC; Bassia scoparia, pre-emergence, 480 h, pre-emergence, use rate 16.5 g ai/ha, read-out: observed % activity 20 DAT): 65%
inhibition at 31 g/ha (KCHSC; [6]): 95%
inhibition at 62 g/ha (KCHSC; [6]): 90%
observed % activity 20 DAT (KCHSC; [1]): 85% and 55%
observed % activity 20 DAT (KCHSC; [2]): 85%
inhibition at 7.75 g/ha (LOLMU; Lolium multiflorum, pre-emergence, 480 h, LOLMU, pre-emergence, individual, use rate 7.75 g ai/ha, read-out: observed % activity 20 DAT): 30%
inhibition at 31 g/ha (LOLMU; Lolium multiflorum, pre-emergence, 480 h, LOLMU, pre-emergence, individual, use rate 31 g ai/ha, read-out: observed % activity 20 DAT): 70%
inhibition at 31 g/ha (LOLMU; Lolium multiflorum, pre-emergence, 480 h, pre-emergence, use rate 31 g ai/ha, read-out: observed % activity 20 DAT): 70%
inhibition at 62 g/ha (LOLMU; Lolium multiflorum, pre-emergence, 480 h, pre-emergence, use rate 62 g ai/ha, read-out: observed % activity 20 DAT): 90%
observed % activity 20 DAT (LOLMU; [1]): 15% and 20% and 0%
observed % activity 20 DAT (LOLMU; [2]): 35% and 50% and 25%
observed % activity 20 DAT (LOLMU; [3]): 80%
observed % activity 20 DAT (LOLMU; [4]): 85%
inhibition at 31 g/ha (PHACA; Phalaris canariensis, pre-emergence, 480 h, pre-emergence, use rate 31 g ai/ha, read-out: observed % activity 20 DAT): 80%
inhibition at 62 g/ha (PHACA; Phalaris canariensis, pre-emergence, 480 h, pre-emergence, use rate 62 g ai/ha, read-out: observed % activity 20 DAT): 75%
observed % activity 20 DAT (PHACA; [2]): 60%
observed % activity 20 DAT (PHACA; [3]): 85%
observed % activity 20 DAT (PHACA; [4]): 70%

COC[C@H](C)N(C(=O)CCl)c1c(C)csc1C [dimethenamid-P]
observed % activity (ALOMY; 125 g ai/ha, 20 DAT): 45%
observed % activity (POLCO; 125 g ai/ha): 55%
observed % activity (POLCO; 250 g ai/ha): 50%
observed % activity (AVEFA): 65%
observed % activity (GALAP; 125 g ai/ha): 30%
observed % activity (GALAP; 250 g ai/ha): 50%
observed % activity (KCHSC; 125 g ai/ha): 40%
observed % activity (KCHSC; 250 g ai/ha): 85%
observed % activity (LOLMU; 125 g ai/ha): 95%
observed % activity (LOLMU; 250 g ai/ha): 95%
observed % activity (PHACA; 125 g ai/ha, 20 DAT): 80%
observed % activity (SORHA): 98%
